Source: the NIST ThermoML archive (doi:10.1016/j.jct.2009.09.009)
Values joined by “and” are separate entries in the source; they are usually repeats but may differ in a detail not shown here. Equal values may be shown once.

Tests used:
[1] = Crystal, Calculated from knudsen effusion weight loss
[2] = molar enthalpy of vaporization or sublimation; details: Crystal, Clausius-Clapeyron equation and measured Psat

Nc1cccc2c(N)cccc12 [1,5-diaminonaphthalene]
Details	molar enthalpy [kcal/mol]	vapor or sublimation pressure
[1], 367.07 K	–	0.000122 kPa and 0.000123 kPa and 0.000125 kPa
[1], 369.1 K	–	0.00015 kPa and 0.000153 kPa and 0.000149 kPa
[1], 371.16 K	–	0.000193 kPa and 0.00019 kPa and 0.000182 kPa
[1], 373.08 K	–	0.000243 kPa and 0.000229 kPa and 0.000246 kPa
[1], 375.1 K	–	0.000311 kPa and 0.000289 kPa and 0.000286 kPa
[1], 377.16 K	–	0.000365 kPa and 0.000344 kPa and 0.000338 kPa
[1], 379.09 K	–	0.000432 kPa and 0.000427 kPa and 0.000417 kPa
[1], 381.1 K	–	0.000535 kPa and 0.000522 kPa and 0.000502 kPa
[1], 383.16 K	–	0.00064 kPa and 0.000622 kPa and 0.000603 kPa
[1], 385.08 K	–	0.000758 kPa and 0.000781 kPa and 0.000757 kPa
[1], 387.09 K	–	0.000967 kPa and 0.00093 kPa and 0.000909 kPa
[1], 389.16 K	–	0.001163 kPa and 0.001096 kPa and 0.001063 kPa
[2], 378.11 K	28.3	–

Nc1cccc2cccc(N)c12 [1,8-diaminonaphthalene]
Details	molar enthalpy [kcal/mol]	vapor or sublimation pressure
[1], 314.1 K	–	4.71e-05 kPa and 4.91e-05 kPa and 4.81e-05 kPa
[1], 316.18 K	–	6.84e-05 kPa and 6.65e-05 kPa and 6.32e-05 kPa
[1], 318.18 K	–	8.3e-05 kPa and 7.89e-05 kPa and 8.02e-05 kPa
[1], 320.09 K	–	0.000102 kPa and 9.96e-05 kPa
[1], 322.13 K	–	0.000135 kPa and 0.000127 kPa and 0.000126 kPa
[1], 324.19 K	–	0.000165 kPa and 0.000155 kPa and 0.000159 kPa
[1], 326.12 K	–	0.000197 kPa and 0.000204 kPa and 0.000181 kPa
[1], 328.19 K	–	0.000261 kPa and 0.000251 kPa and 0.000244 kPa
[1], 330.17 K	–	0.000315 kPa and 0.000298 kPa and 0.000296 kPa
[1], 332.07 K	–	0.000351 kPa and 0.000379 kPa and 0.000364 kPa
[1], 334.12 K	–	0.000485 kPa and 0.000472 kPa and 0.000466 kPa
[1], 336.19 K	–	0.000583 kPa and 0.00056 kPa and 0.000585 kPa
[1], 338.08 K	–	0.000707 kPa and 0.000739 kPa and 0.000734 kPa
[2], 326.09 K	23.3	–
